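Protocol summary: plate cells (96-well), add compound at 5 concentrations, incubate 48 h, interpolate endpoints linearly. At the TGI there is no net growth.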
Columns and labels:
Experiment in all cases: NCI tumour cell line growth inhibition, 48 h
HCT-116 colon = test system: HCT-116 colon
SF-268 CNS = test system: SF-268 CNS
T-47D breast = test system: T-47D breast
SK-MEL-5 melanoma = test system: SK-MEL-5 melanoma
MALME-3M melanoma = test system: MALME-3M melanoma
K-562 leukemia = test system: K-562 leukemia
UACC-62 melanoma = test system: UACC-62 melanoma
CAKI-1 renal = test system: CAKI-1 renal
MOLT-4 leukemia = test system: MOLT-4 leukemia
HL-60(TB) leukemia = test system: HL-60(TB) leukemia
NCI/ADR-RES ovarian = test system: NCI/ADR-RES ovarian
UACC-257 melanoma = test system: UACC-257 melanoma
DU-145 prostate = test system: DU-145 prostate
A549 NSCLC = test system: A549 NSCLC
SNB-75 CNS = test system: SNB-75 CNS
IGROV1 ovarian = test system: IGROV1 ovarian
SF-539 CNS = test system: SF-539 CNS
NCI-H23 lung = test system: NCI-H23 lung
NCI-H522 lung = test system: NCI-H522 lung
OVCAR-3 ovarian = test system: OVCAR-3 ovarian
SK-OV-3 ovarian = test system: SK-OV-3 ovarian
MDA-N = test system: MDA-N
M14 melanoma = test system: M14 melanoma
SN12C renal = test system: SN12C renal
CCRF-CEM leukemia = test system: CCRF-CEM leukemia
HOP-92 NSCLC = test system: HOP-92 NSCLC
MCF7 breast = test system: MCF7 breast
U251 CNS = test system: U251 CNS
SR leukemia = test system: SR leukemia
COLO 205 colon = test system: COLO 205 colon
MDA-MB-435 = test system: MDA-MB-435
HCT-15 colon = test system: HCT-15 colon
NCI-H460 lung = test system: NCI-H460 lung
PC-3 prostate = test system: PC-3 prostate
BT-549 breast = test system: BT-549 breast
RXF 393 renal = test system: RXF 393 renal
A498 renal = test system: A498 renal
HT29 colon = test system: HT29 colon
RPMI-8226 leukemia = test system: RPMI-8226 leukemia
HOP-62 NSCLC = test system: HOP-62 NSCLC
KM12 colon = test system: KM12 colon
MDA-MB-231 breast = test system: MDA-MB-231 breast
TK-10 renal = test system: TK-10 renal
OVCAR-8 ovarian = test system: OVCAR-8 ovarian
ACHN renal = test system: ACHN renal
SK-MEL-2 melanoma = test system: SK-MEL-2 melanoma
786-0 renal = test system: 786-0 renal
SNB-19 CNS = test system: SNB-19 CNS
HS 578T breast = test system: HS 578T breast
LOX IMVI melanoma = test system: LOX IMVI melanoma
UO-31 renal = test system: UO-31 renal
SW-620 colon = test system: SW-620 colon
SK-MEL-28 melanoma = test system: SK-MEL-28 melanoma
EKVX NSCLC = test system: EKVX NSCLC
HCC-2998 colon = test system: HCC-2998 colon
OVCAR-4 ovarian = test system: OVCAR-4 ovarian
OVCAR-5 ovarian = test system: OVCAR-5 ovarian
SF-295 CNS = test system: SF-295 CNS

Which TGI (HCT-116 colon) does the source give for `CN(C)c1ccc(/C=C/c2ccnc3ccc4ccccc4c23)cc1` here?
The TGI was greater than 100 µM.

And the TGI (SF-268 CNS)?
Its TGI is greater than 100 µM.

And the TGI (T-47D breast)?
Its TGI is greater than 100 µM.

And the TGI (SK-MEL-5 melanoma)?
The TGI was greater than 100 µM.

And the TGI (MALME-3M melanoma)?
Its TGI is 58.5 µM.

What about the TGI (K-562 leukemia) of the same compound?
Its TGI is greater than 100 µM.

What about the TGI (UACC-62 melanoma) of the same compound?
Its TGI is greater than 100 µM.

And the TGI (CAKI-1 renal)?
The TGI was greater than 100 µM.

And the TGI (MOLT-4 leukemia)?
The TGI was greater than 100 µM.

What about the TGI (HL-60(TB) leukemia) of the same compound?
Its TGI is greater than 100 µM.

And the TGI (NCI/ADR-RES ovarian)?
The TGI was greater than 100 µM.

What about the TGI (UACC-257 melanoma) of the same compound?
Its TGI is greater than 100 µM.

What about the TGI (DU-145 prostate) of the same compound?
The TGI was greater than 100 µM.

And the TGI (A549 NSCLC)?
The TGI was greater than 100 µM.

And the TGI (SNB-75 CNS)?
Its TGI is 70.4 µM.

What about the TGI (IGROV1 ovarian) of the same compound?
Its TGI is 45.8 µM.

And the TGI (SF-539 CNS)?
The TGI was greater than 100 µM.

And the TGI (NCI-H23 lung)?
Its TGI is greater than 100 µM.

What about the TGI (NCI-H522 lung) of the same compound?
The TGI was greater than 100 µM.

What about the TGI (OVCAR-3 ovarian) of the same compound?
The TGI was greater than 100 µM.

And the TGI (SK-OV-3 ovarian)?
The TGI was greater than 100 µM.

And the TGI (MDA-N)?
The TGI was greater than 100 µM.

And the TGI (M14 melanoma)?
The TGI was greater than 100 µM.

What about the TGI (SN12C renal) of the same compound?
The TGI was greater than 100 µM.

What about the TGI (CCRF-CEM leukemia) of the same compound?
The TGI was greater than 100 µM.

And the TGI (HOP-92 NSCLC)?
The TGI was greater than 100 µM.

And the TGI (MCF7 breast)?
Its TGI is greater than 100 µM.

What about the TGI (U251 CNS) of the same compound?
Its TGI is greater than 100 µM.

What about the TGI (SR leukemia) of the same compound?
The TGI was greater than 100 µM.

And the TGI (COLO 205 colon)?
The TGI was greater than 100 µM.

What about the TGI (MDA-MB-435) of the same compound?
The TGI was greater than 100 µM.

What about the TGI (HCT-15 colon) of the same compound?
Its TGI is greater than 100 µM.

And the TGI (NCI-H460 lung)?
Its TGI is greater than 100 µM.

And the TGI (PC-3 prostate)?
The TGI was greater than 100 µM.

And the TGI (BT-549 breast)?
The TGI was greater than 100 µM.

And the TGI (RXF 393 renal)?
The TGI was 44.9 µM.

What about the TGI (A498 renal) of the same compound?
The TGI was 69.1 µM.

And the TGI (HT29 colon)?
Its TGI is greater than 100 µM.

What about the TGI (RPMI-8226 leukemia) of the same compound?
The TGI was greater than 100 µM.

What about the TGI (HOP-62 NSCLC) of the same compound?
Its TGI is greater than 100 µM.

What about the TGI (KM12 colon) of the same compound?
Its TGI is greater than 100 µM.

And the TGI (MDA-MB-231 breast)?
The TGI was greater than 100 µM.

And the TGI (TK-10 renal)?
Its TGI is 49.9 µM.

What about the TGI (OVCAR-8 ovarian) of the same compound?
The TGI was greater than 100 µM.

What about the TGI (ACHN renal) of the same compound?
Its TGI is 57.3 µM.

What about the TGI (SK-MEL-2 melanoma) of the same compound?
Its TGI is greater than 100 µM.

What about the TGI (786-0 renal) of the same compound?
The TGI was greater than 100 µM.

What about the TGI (SNB-19 CNS) of the same compound?
The TGI was greater than 100 µM.

What about the TGI (HS 578T breast) of the same compound?
The TGI was greater than 100 µM.

What about the TGI (LOX IMVI melanoma) of the same compound?
Its TGI is greater than 100 µM.

What about the TGI (UO-31 renal) of the same compound?
Its TGI is greater than 100 µM.

What about the TGI (SW-620 colon) of the same compound?
The TGI was greater than 100 µM.

And the TGI (SK-MEL-28 melanoma)?
The TGI was greater than 100 µM.

How did the TGI (HCT-116 colon) turn out when `COc1cc(/C=C2\N=C(c3ccccc3)N(c3nc4cc(C)c(C)cc4s3)C2=O)cc(OC)c1OC` was run?
The TGI was 50.4 µM.

What about the TGI (SF-268 CNS) of the same compound?
The TGI was greater than 100 µM.

What about the TGI (T-47D breast) of the same compound?
The TGI was greater than 100 µM.

What about the TGI (SK-MEL-5 melanoma) of the same compound?
Its TGI is greater than 100 µM.

And the TGI (K-562 leukemia)?
The TGI was greater than 100 µM.

What about the TGI (UACC-62 melanoma) of the same compound?
The TGI was greater than 100 µM.

What about the TGI (CAKI-1 renal) of the same compound?
Its TGI is greater than 100 µM.

What about the TGI (MOLT-4 leukemia) of the same compound?
Its TGI is 30.3 µM.

And the TGI (EKVX NSCLC)?
The TGI was 70.7 µM.

What about the TGI (HL-60(TB) leukemia) of the same compound?
The TGI was 39.7 µM.

What about the TGI (NCI/ADR-RES ovarian) of the same compound?
Its TGI is greater than 100 µM.

What about the TGI (UACC-257 melanoma) of the same compound?
The TGI was greater than 100 µM.

And the TGI (DU-145 prostate)?
The TGI was greater than 100 µM.

And the TGI (A549 NSCLC)?
The TGI was greater than 100 µM.

And the TGI (SNB-75 CNS)?
The TGI was 60 µM.

And the TGI (IGROV1 ovarian)?
Its TGI is greater than 100 µM.

What about the TGI (SF-539 CNS) of the same compound?
Its TGI is 51.4 µM.

And the TGI (HCC-2998 colon)?
Its TGI is 45.7 µM.

What about the TGI (OVCAR-3 ovarian) of the same compound?
The TGI was 49.1 µM.

And the TGI (SK-OV-3 ovarian)?
Its TGI is greater than 100 µM.

What about the TGI (OVCAR-4 ovarian) of the same compound?
Its TGI is greater than 100 µM.

What about the TGI (MDA-N) of the same compound?
Its TGI is 38.9 µM.

What about the TGI (M14 melanoma) of the same compound?
Its TGI is greater than 100 µM.

What about the TGI (SN12C renal) of the same compound?
The TGI was 99.1 µM.

And the TGI (CCRF-CEM leukemia)?
The TGI was 21.8 µM.

And the TGI (HOP-92 NSCLC)?
Its TGI is 64.8 µM.

And the TGI (MCF7 breast)?
Its TGI is 43 µM.

What about the TGI (U251 CNS) of the same compound?
Its TGI is 66.1 µM.

What about the TGI (SR leukemia) of the same compound?
Its TGI is 53.1 µM.

And the TGI (COLO 205 colon)?
The TGI was greater than 100 µM.

And the TGI (MDA-MB-435)?
The TGI was 54.9 µM.

What about the TGI (HCT-15 colon) of the same compound?
The TGI was greater than 100 µM.

What about the TGI (NCI-H460 lung) of the same compound?
Its TGI is greater than 100 µM.

And the TGI (PC-3 prostate)?
Its TGI is greater than 100 µM.

What about the TGI (BT-549 breast) of the same compound?
The TGI was greater than 100 µM.

What about the TGI (RXF 393 renal) of the same compound?
Its TGI is 65.2 µM.

What about the TGI (HT29 colon) of the same compound?
Its TGI is 48.6 µM.

What about the TGI (RPMI-8226 leukemia) of the same compound?
The TGI was greater than 100 µM.

And the TGI (HOP-62 NSCLC)?
The TGI was 66.6 µM.

What about the TGI (OVCAR-5 ovarian) of the same compound?
The TGI was 84.2 µM.

What about the TGI (KM12 colon) of the same compound?
Its TGI is 71.2 µM.

And the TGI (MDA-MB-231 breast)?
The TGI was greater than 100 µM.

What about the TGI (TK-10 renal) of the same compound?
Its TGI is greater than 100 µM.

What about the TGI (OVCAR-8 ovarian) of the same compound?
The TGI was 47.6 µM.

And the TGI (ACHN renal)?
The TGI was 83.9 µM.

And the TGI (SK-MEL-2 melanoma)?
The TGI was greater than 100 µM.

And the TGI (786-0 renal)?
The TGI was greater than 100 µM.

What about the TGI (SF-295 CNS) of the same compound?
Its TGI is greater than 100 µM.

What about the TGI (SNB-19 CNS) of the same compound?
Its TGI is greater than 100 µM.

What about the TGI (HS 578T breast) of the same compound?
The TGI was 98 µM.

And the TGI (LOX IMVI melanoma)?
Its TGI is 68.7 µM.

And the TGI (UO-31 renal)?
The TGI was greater than 100 µM.

What about the TGI (SW-620 colon) of the same compound?
The TGI was greater than 100 µM.

What about the TGI (SK-MEL-28 melanoma) of the same compound?
The TGI was greater than 100 µM.
